# Results from publication PMC5581245 (Electrophoresis, 2017).
# Assay: Retention of glycopeptides on reversed phase C18 nanoLC-MS
# Format: physicochemical
# Settings: difference between glycoform with and without fucose; RP C18 nanoLC, gradient 3
row,Sequence,RRT difference introduced by fucose (RRT expressed as trx/trGlcNAc form)
1,VVLHPNYSQVDIGLIK [bi-antennary glycoform of VVLHPNYSQVDIGLIK],0.00204
2,VVLHPNYSQVDIGLIK [tetra-antennary glycoform of VVLHPNYSQVDIGLIK],0.00035
3,VVLHPNYSQVDIGLIK [tri-antennary glycoform of VVLHPNYSQVDIGLIK],0.00096
